From ChEMBL document CHEMBL3217417, “PRIMACINS, N-cinnamoyl-primaquine conjugates, with improved liver-stage antimalarial activity” (Medchemcomm, 2012)

Legend:
Plasmodium berghei [1] = assay: Antiplasmodial activity against liver stage of Plasmodium berghei sporozoites expressing firefly luciferase infected in human Huh7 cells assessed as inhibition of parasite development treated 1 hr prior to infection followed by compound replenisment at 24 hrs post-infection measured 48 hrs after infection by bioluminescence analysis; type: functional, organism-based; details: Huh-7, Liver
Plasmodium berghei [2] = assay: Ratio of primaquine IC50 to compound IC50 against liver stage of Plasmodium berghei sporozoites expressing firefly luciferase infected in human Huh7 cells; type: functional, Huh-7
Plasmodium falciparum = assay: Antiplasmodial activity against erythrocyte stage of Plasmodium falciparum W2 assessed as growth inhibition after 48 hrs by flow cytometry; type: functional, organism-based; details: W2, 48 h
[3] = Cytotoxicity against human HuH7 cells assessed as cell viability by alamarblue assay; type: cell-based; details: huh-7

Row | Structure (SMILES) | IC50 (Plasmodium berghei [1]) | Ratio IC50 (Plasmodium berghei [2]) | IC50 (Plasmodium falciparum) | Activity [3]
1 | COc1cc(NC(C)CCCNC(=O)/C=C/c2cccc(F)c2)c2ncccc2c1 (centres undefined) | 1630 nM | >2 | ≥ 10000 nM | Non-toxic
2 | COc1cc(NC(C)CCCNC(=O)/C=C/c2ccc(Cl)cc2)c2ncccc2c1 (centres undefined) | 2390 nM | >2 | ≥ 10000 nM | Non-toxic
3 | COc1cc(NC(C)CCCNC(=O)/C=C/c2ccccc2[N+](=O)[O-])c2ncccc2c1 (centres undefined) | 2360 nM | >2 | ≥ 10000 nM | Non-toxic
4 | COc1cc(NC(C)CCCNC(=O)/C=C/c2ccc(C)cc2)c2ncccc2c1 (centres undefined) | 2130 nM | >2 | ≥ 10000 nM | Non-toxic
5 | COc1ccc(/C=C/C(=O)NCCCC(C)Nc2cc(OC)cc3cccnc23)cc1 (centres undefined) | – | >2 | ≥ 10000 nM | Non-toxic
6 | C[C@@H]1CC[C@H]2[C@@H](C)C(=O)O[C@@H]3O[C@@]4(C)CC[C@@H]1[C@]32OO4 [ARTEMISININ] | – | – | 5.64 nM | –
7 | COc1cc(NC(C)CCCNC(=O)/C=C/c2ccc(C(C)C)cc2)c2ncccc2c1 (centres undefined) | 1540 nM | >2 | 4840 nM | Non-toxic
8 | COc1cc(NC(C)CCCNC(=O)/C=C/c2ccccc2)c2ncccc2c1 (centres undefined) | 2010 nM | >2 | ≥ 10000 nM | Non-toxic

Now from value to compound, other results behind:

Row | IC50 (Plasmodium berghei [1]) | Structure (SMILES) | Ratio IC50 (Plasmodium berghei [2]) | IC50 (Plasmodium falciparum) | Activity [3]
9 | 2120 nM | COc1cc(NC(C)CCCNC(=O)/C=C/c2cccc([N+](=O)[O-])c2)c2ncccc2c1 (centres undefined) | >2 | ≥ 10000 nM | Non-toxic
10 | 1380 nM | COc1cc(NC(C)CCCNC(=O)/C=C/c2ccc(Br)cc2)c2ncccc2c1 (centres undefined) | >2 | ≥ 10000 nM | Non-toxic
11 | 2240 nM | COc1cc(NC(C)CCCNC(=O)/C=C/c2ccc([N+](=O)[O-])cc2)c2ncccc2c1 (centres undefined) | >2 | ≥ 10000 nM | Non-toxic
12 | 2330 nM | COc1cc(NC(C)CCCNC(=O)/C=C/c2ccc(F)cc2)c2ncccc2c1 (centres undefined) | >2 | ≥ 10000 nM | Non-toxic
